Data set [1] relates to MZ-CRC-1 medullary thyroid carcinoma cells, harboring a mutated RET-M918T receptor. Kind of data set: In Vitro Cell Proliferation Assay (MZ-CRC-1). The format is cell-based. The conditions noted are these: Homo sapiens, 144 hours exposure, CellTiterGlo. On the procedure:
(§1) In Vitro Cell Proliferation Assay
(§2) To evaluate the antiproliferative activity of a compound of formula (I) the following human cell lines were used: A2780 ovarian and MCF-7 breast carcinoma; TT and MZ-CRC-1 medullary thyroid carcinoma, harboring a mutated RET-C634W and RET-M918T receptor respectively, LC-2/ad Non Small Cell Lung Carcinoma, expressing the CCDC6-RET fusion gene product. Exponentially growing cells were seeded and incubated at 37° C. in a humidified 5% C02 atmosphere using appropriate medium supplemented with 10% Fetal Bovine Serum. 24 hours following cell plating, scalar doses of the compounds dissolved in 0.1% DMSO were added to the medium and cells were exposed to drugs for either 72 hours (MCF-7 and A2780) or 144 hours (TT, MZ-CRC-1 and LC-2/ad), according to their different proliferation rate. At the end of treatment, cell proliferation was determined by an intracellular ATP monitoring system (CellTiterGlo—Promega), following manufacturer's instructions, and using an Envision instrument (PerkinElmer) as reader. Data obtained from compound versus vehicle treated cells were compared using Assay Explorer (Symyx Technologies Inc) software. IC50 values were calculated using sigmoidal interpolation curve fitting.
A general note: ATP-based viability assays read luminescence as a measure of living cells.

The subject of data set [2] is MCF-7 breast carcinoma cells. Kind of data set: In Vitro Cell Proliferation Assay (MCF-7). The format is cell-based. Conditions: Homo sapiens, MCF7; 72 hours exposure, CellTiterGlo. The procedure:
as §1, §2

Data set [3] concerns TT medullary thyroid carcinoma cells, harboring a mutated RET-C634W receptor. Nature of the data set: In Vitro Cell Proliferation Assay (TT). It is filed as cell-based. Conditions: Homo sapiens; 144 hours exposure, CellTiterGlo. On the procedure: as §1, §2
Data set [4] can be described thus: High-Throughput Solubility Assay. It is filed as physicochemical. Conditions: kinetic from dmso stock; pH 7, aqueous potassium phosphate buffer, nominal 200 μM, 24 h at room temperature. The procedure:
High-Throughput Solubility Assay
A nominal 200 μM suspensions/solutions of a compound of formula (I) in aqueous potassium phosphate buffer at pH=7 and aqueous citric acid buffer at pH=3 were prepared on a “Multiscreen-HTS”, 0.2 μm filter plate (Millipore, Billerica, Mass.). These solutions were stirred for 10 min and stored for 24 h at room temperature to pre-saturate the membrane filter and to reach a “pseudo-thermodynamic solubility”. Then the plate was put on a 500 μL 96 multiwell plate containing 200 μL of acetonitrile in each well and centrifuged at 2000 rpm for 5 minutes. The so obtained solutions were then analyzed simultaneously by HPLC-UV with standard solutions for quantification.

The subject of data set [5] is LC-2/ad Non Small Cell Lung Carcinoma cells, expressing the CCDC6-RET fusion gene product. Kind of data set: In Vitro Cell Proliferation Assay (LC-2/ad). It is filed as cell-based. The conditions noted are these: Homo sapiens, 144 hours exposure, CellTiterGlo. The procedure:
as §1, §2

In data set [6] the test system is A2780 ovarian carcinoma cells. Kind of data set: In Vitro Cell Proliferation Assay (A2780). It is filed as cell-based. The conditions noted are these: Homo sapiens, 72 hours exposure, CellTiterGlo. The procedure:
as §1, §2

Values after ≈ are worked out from the molar mass of the structure shown. A value given as a limit tells only on which side of the number the result lay.

Consider six compounds from patent publication US9604980B2, “Substituted pyrimidinyl and pyridinyl-pyrrolopyridinones, process for their preparation and their use as kinase inhibitors” (NERVIANO MEDICAL SCIENCES S.r.l, priority 2012, dated 2017).

Consider `CCN1CCN(Cc2ccc(NC(=O)Nc3cccc(C#Cc4cnc(N)nc4-c4cc5c(n4C)CCNC5=O)c3)cc2C(F)(F)F)CC1` [Cmpd 8, 1-{3-[2-Amino-4-(1-methyl-4-oxo-4,5,6,7-tetrahydro-1H-pyrrolo[3,2-c]pyridin-2-yl)-pyrimidin-5-ylethynyl]-phenyl}-3-[4-(4-ethyl-piperazin-1-ylmethyl)-3-trifluoromethyl-phenyl]-urea], for which the IC50 amounted to 0.074 µM in data set [1]; 4780 nM in data set [2]; 0.002 µM in data set [3]; 0.038 µM in data set [5]; 1760 nM in data set [6]. Moreover, the solubility at 24 h in data set [4] stood at 6.5 µM (≈ 4.37 µg/mL).

Take `CCN1CCN(Cc2ccc(NC(=O)c3cccc(C#Cc4cnc(N)nc4-c4cc5c(n4C)CCNC5=O)c3)cc2C(F)(F)F)CC1` [Cmpd 48, 3-[2-Amino-4-(1-methyl-4-oxo-4,5,6,7-tetrahydro-1H-pyrrolo[3,2-c]pyridin-2-yl)-pyrimidin-5-ylethynyl]-N-[4-(4-ethyl-piperazin-1-ylmethyl)-3-trifluoromethyl-phenyl]-benzamide]: the IC50 in data set [1] turned out to be 0.004 µM; in data set [2] it was 1840 nM; in data set [3], 0.0005 µM; in data set [5], 0.004 µM; in data set [6], 85 nM. The same compound gave a solubility at 24 h in data set [4] of 26.9 µM (≈ 17.7 µg/mL).

Take `CNc1ncc(C#Cc2cccc(CC(=O)Nc3ccc(CN4CCN(C)CC4)c(C(F)(F)F)c3)c2)c(-c2cc3c(n2C)CCNC3=O)n1` [Cmpd 174, 2-{3-[2-Methylamino-4-(1-methyl-4-oxo-4,5,6,7-tetrahydro-1H-pyrrolo[3,2-c]pyridin-2-yl)-pyrimidin-5-ylethynyl]-phenyl}-N-[4-(4-methyl-piperazin-1-ylmethyl)-3-trifluoromethyl-phenyl]-acetamide]: the IC50 was 0.015 µM in data set [1], 0.005 µM in data set [3], 0.01 µM in data set [5] and 1150 nM in data set [6]. The solubility at 24 h in data set [4] was found to be 3.5 µM (≈ 2.35 µg/mL).

For the compound `CNc1ncc(C#Cc2cccc(CC(=O)Nc3ccc(CN4CCN(C(C)C)CC4)c(C(F)(F)F)c3)c2)c(-c2cc3c(n2C)CCNC3=O)n1` [Cmpd 176, N-[4-(4-Isopropyl-piperazin-1-ylmethyl)-3-trifluoromethyl-phenyl]-2-{3-[2-methylamino-4-(1-methyl-4-oxo-4,5,6,7-tetrahydro-1H-pyrrolo[3,2-c]pyridin-2-yl)-pyrimidin-5-ylethynyl]-phenyl}-acetamide], the IC50 in data set [1] was found to be 0.023 µM; in data set [3] it was 0.014 µM; in data set [5], 0.02 µM; in data set [6], 3830 nM. For the same compound, in data set [4], the solubility at 24 h came to 7.6 µM (≈ 5.31 µg/mL).

Take `CNc1ncc(C#Cc2cc(CC(=O)Nc3ccc(CN4CCN(C)CC4)c(C(F)(F)F)c3)ccc2F)c(-c2cc3c(n2C)CCNC3=O)n1` [Cmpd 190, 2-{4-Fluoro-3-[2-methylamino-4-(1-methyl-4-oxo-4,5,6,7-tetrahydro-1H-pyrrolo[3,2-c]pyridin-2-yl)-pyrimidin-5-ylethynyl]-phenyl}-N-[4-(4-methyl-piperazin-1-ylmethyl)-3-trifluoromethyl-phenyl]-acetamide]: the IC50 in data set [1] turned out to be 0.039 µM; in data set [3], 0.008 µM; in data set [5] it was 0.051 µM; in data set [6], 2310 nM. For the same compound, the solubility at 24 h in data set [4] came to 2.9 µM (≈ 2 µg/mL).

Consider `CCNc1ncc(C#Cc2cccc(CC(=O)Nc3ccc(CN4CCN(C)CC4)c(C(F)(F)F)c3)c2)c(-c2cc3c(n2C)CCNC3=O)n1` [Cmpd 193, 2-{3-[2-Ethylamino-4-(1-methyl-4-oxo-4,5,6,7-tetrahydro-1H-pyrrolo[3,2-c]pyridin-2-yl)-pyrimidin-5-ylethynyl]-phenyl}-N-[4-(4-methyl-piperazin-1-ylmethyl)-3-trifluoromethyl-phenyl]-acetamide], for which the half-inhibitory concentration (IC50) in data set [1] was 0.039 µM; in data set [3], 0.016 µM; in data set [5] it was 0.015 µM; in data set [6] it was 910 nM. The same compound gave a solubility at 24 h in data set [4] of less than 1 µM.

What is called IC50 is the concentration that gives 50% inhibition. For orientation: solubility means how much of the substance goes into solution per volume. A lower solubility goes with little dissolved substance.
